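At the GI50, growth is halved. The concentration for full growth arrest is given as TGI.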
Experiments:
Test in all cases: NCI tumour cell line growth inhibition, 384-well format
T-47D breast = system: T-47D breast
IGROV1 ovarian = system: IGROV1 ovarian
SK-OV-3 ovarian = system: SK-OV-3 ovarian
A498 renal = system: A498 renal
UACC-257 melanoma = system: UACC-257 melanoma
ACHN renal = system: ACHN renal
786-0 renal = system: 786-0 renal
HOP-92 NSCLC = system: HOP-92 NSCLC
SF-539 CNS = system: SF-539 CNS
HCT-116 colon = system: HCT-116 colon
RXF 393 renal = system: RXF 393 renal
OVCAR-5 ovarian = system: OVCAR-5 ovarian
MDA-MB-468 breast = system: MDA-MB-468 breast
MCF7 breast = system: MCF7 breast
HT29 colon = system: HT29 colon
BT-549 breast = system: BT-549 breast
COLO 205 colon = system: COLO 205 colon
PC-3 prostate = system: PC-3 prostate
HCT-15 colon = system: HCT-15 colon
UACC-62 melanoma = system: UACC-62 melanoma
SN12C renal = system: SN12C renal
NCI-H522 lung = system: NCI-H522 lung
KM12 colon = system: KM12 colon
MDA-MB-231 breast = system: MDA-MB-231 breast
SW-620 colon = system: SW-620 colon
LOX IMVI melanoma = system: LOX IMVI melanoma
MALME-3M melanoma = system: MALME-3M melanoma

**Q.** How did the GI50 (T-47D breast) turn out when `C[C@]12CC[C@H](O)CC1=CC[C@@H]1[C@@H]2CC[C@]2(C)C(c3cccnc3)=CC[C@@H]12` was run?
**A.** > 100 µM

**Q.** What about the TGI (T-47D breast) of the same compound?
**A.** > 100 µM

**Q.** And the GI50 (IGROV1 ovarian)?
**A.** 60.4 µM

**Q.** What about the TGI (IGROV1 ovarian) of the same compound?
**A.** > 100 µM

**Q.** And the GI50 (SK-OV-3 ovarian)?
**A.** > 100 µM

**Q.** And the TGI (SK-OV-3 ovarian)?
**A.** > 100 µM

**Q.** And the GI50 (A498 renal)?
**A.** 15.8 µM

**Q.** And the TGI (A498 renal)?
**A.** 45.1 µM

**Q.** What about the GI50 (UACC-257 melanoma) of the same compound?
**A.** > 100 µM

**Q.** What about the TGI (UACC-257 melanoma) of the same compound?
**A.** > 100 µM

**Q.** And the GI50 (ACHN renal)?
**A.** 22.9 µM

**Q.** And the TGI (ACHN renal)?
**A.** > 100 µM

**Q.** And the GI50 (786-0 renal)?
**A.** 1.93 µM

**Q.** What about the TGI (786-0 renal) of the same compound?
**A.** 3.88 µM

**Q.** What about the GI50 (HOP-92 NSCLC) of the same compound?
**A.** 25.2 µM

**Q.** What about the TGI (HOP-92 NSCLC) of the same compound?
**A.** > 100 µM

**Q.** And the GI50 (SF-539 CNS)?
**A.** > 100 µM

**Q.** What about the TGI (SF-539 CNS) of the same compound?
**A.** > 100 µM

**Q.** And the GI50 (HCT-116 colon)?
**A.** 57 µM

**Q.** What about the TGI (HCT-116 colon) of the same compound?
**A.** > 100 µM

**Q.** What about the GI50 (RXF 393 renal) of the same compound?
**A.** 1.83 µM

**Q.** What about the TGI (RXF 393 renal) of the same compound?
**A.** 4.72 µM

**Q.** What about the GI50 (OVCAR-5 ovarian) of the same compound?
**A.** > 100 µM

**Q.** And the TGI (OVCAR-5 ovarian)?
**A.** > 100 µM

**Q.** And the GI50 (MDA-MB-468 breast)?
**A.** 5.46 µM

**Q.** And the TGI (MDA-MB-468 breast)?
**A.** > 100 µM

**Q.** And the GI50 (MCF7 breast)?
**A.** > 100 µM

**Q.** What about the TGI (MCF7 breast) of the same compound?
**A.** > 100 µM

**Q.** And the GI50 (HT29 colon)?
**A.** 15.2 µM

**Q.** And the TGI (HT29 colon)?
**A.** 96.1 µM

**Q.** What about the GI50 (BT-549 breast) of the same compound?
**A.** 9.12 µM

**Q.** What about the TGI (BT-549 breast) of the same compound?
**A.** 69.7 µM

**Q.** And the GI50 (COLO 205 colon)?
**A.** 42.1 µM

**Q.** And the TGI (COLO 205 colon)?
**A.** > 100 µM

**Q.** What about the GI50 (PC-3 prostate) of the same compound?
**A.** > 100 µM

**Q.** And the TGI (PC-3 prostate)?
**A.** > 100 µM

**Q.** And the GI50 (HCT-15 colon)?
**A.** 9.74 µM

**Q.** And the TGI (HCT-15 colon)?
**A.** > 100 µM

**Q.** What about the GI50 (UACC-62 melanoma) of the same compound?
**A.** > 100 µM

**Q.** And the TGI (UACC-62 melanoma)?
**A.** > 100 µM

**Q.** And the GI50 (SN12C renal)?
**A.** > 100 µM

**Q.** What about the TGI (SN12C renal) of the same compound?
**A.** > 100 µM

**Q.** And the GI50 (NCI-H522 lung)?
**A.** > 100 µM

**Q.** And the TGI (NCI-H522 lung)?
**A.** > 100 µM

**Q.** What about the GI50 (KM12 colon) of the same compound?
**A.** 38.3 µM

**Q.** And the TGI (KM12 colon)?
**A.** > 100 µM

**Q.** What about the GI50 (MDA-MB-231 breast) of the same compound?
**A.** > 100 µM

**Q.** What about the TGI (MDA-MB-231 breast) of the same compound?
**A.** > 100 µM

**Q.** And the GI50 (SW-620 colon)?
**A.** > 100 µM

**Q.** What about the TGI (SW-620 colon) of the same compound?
**A.** > 100 µM

**Q.** What about the GI50 (LOX IMVI melanoma) of the same compound?
**A.** 4.93 µM

**Q.** And the TGI (LOX IMVI melanoma)?
**A.** > 100 µM

**Q.** And the GI50 (MALME-3M melanoma)?
**A.** 3.99 µM

**Q.** And the TGI (MALME-3M melanoma)?
**A.** 61.5 µM
